Measured values taken from patent US7364741B1, “Peptides of human Papilloma virus for use in human T cell response inducing compositions” (priority 1992, dated 2008).

Columns and labels:
[1] = molecular target: T1, HLA-A2.1 (Homo sapiens, UniProt P04439, D140Y/D185E/D98H/E176V/E277Q/G131W/G231S/I119V/I121R/I166T/I218V/L300P/L318F/N151K/N90K/P208A/P217A/Q86G/Q94H/R138H/R169H/T345S); format: cell-based; conditions: HPV16 peptides, 200 μg/ml peptide, 16 hours, 174CEM.T2 cells; for FI (Fluorescence Index): background set on 0, binding positive when ≧0.5
T1 construct: endogenous in cells; host or cells: 174CEM.T2
Procedure: Of all peptides a dilution of 1 mg/ml in 0.9% NaCl was made.
174CEM.T2 cells were cultured in Iscovel's modified Dulbecco's medium (Biochrom KG Seromed Berlin, Germany: F0465) supplemented with 100 IU/ml penicillin (Biocades Pharma, Leiderdorp, The Netherlands), 100 μg/ml kanamycin (Sigma St. Louis, USA:K-0254), 2 mM glutamine (ICN Biomedicals Inc. Costa Mesa, Calif., USA:15-801-55) and 10% fetal calf serum (FCS, Hyclone Laboratories Inc. Logan, Utah, USA:A-1115-L). Cells were cultured at a density of 2.5×10^5/ml during 3 days at 37° C., 5% CO2 in humified air.
174CEM.T2 cells were washed twice in culture medium without FCS and put in serum-free culture medium to a density of 2×10^6 cells/ml. Of this suspension 40 μl was put into a V bottomed 96 well plate (Greiner GmbH, Frickenhausen, Germany: 651101) together with 10 μl of the individual peptide dilutions (of 1 mg/ml). The end concentration is 200 μg/ml peptide with 8×10^4 174CEM.T2 cells. This solution was gently agitated for 3 minutes after which an incubation time of 16 hours at 37° C., 5% CO2 in humified air took place. Then cells were washed once with 100 μl 0.9% NaCl, 0.5% bovine serum albumin (Sigma St. Louis, USA: A-7409), 0.02% NaN3 (Merck Darmstadt, Germany:822335). After a centrifuge round of 1200 rpm the pellet was resuspended in 50 μl of saturating amounts of HLA-A2.1 specific mouse monoclonal antibody BB7.2 for 30 minutes at 4° C. Then cells were washed twice and incubated for 30 minutes with F(ab)2 fragments of goat anti-mouse IgG that had been conjugated with […] (Tago Inc Burlingame, Calif., USA: 4350) in a dilution of 1:40 and a total volume of 25 μl.
After the last incubation, cells were washed twice and fluorescence was measured at 488 nanometer on a FACScan flow-cytometer (Becton Dickinson, Franklin Lakes, N.J., USA).
The 174CEM.T2 cell line expresses “empty” and unstable HLA-A2.1 molecules that can be stabilized when a peptide is binding to the peptide presenting groove of these molecules. […] This leads to an increase in cell surface expression of the HLA-A2.1 molecule.
With background fluorescence level (without adding peptides) set on a Fluorescence Index level of 0, binding of a peptide was regarded positive when the level of fluorescence was ≧0.5.

[2] = molecular target: T2, HLA-A3.2 (Homo sapiens, UniProt P04439); format: binding; conditions: HLA-A3.2; IC50 of standard divided by IC50 of tested peptide; cysteines synthesized as alanine
T2 construct: endogenous in cells; host or cells: EBV transformed cell line GM3107 (protein purified from NP40 lysate)
T2 sequence (P04439 25-365): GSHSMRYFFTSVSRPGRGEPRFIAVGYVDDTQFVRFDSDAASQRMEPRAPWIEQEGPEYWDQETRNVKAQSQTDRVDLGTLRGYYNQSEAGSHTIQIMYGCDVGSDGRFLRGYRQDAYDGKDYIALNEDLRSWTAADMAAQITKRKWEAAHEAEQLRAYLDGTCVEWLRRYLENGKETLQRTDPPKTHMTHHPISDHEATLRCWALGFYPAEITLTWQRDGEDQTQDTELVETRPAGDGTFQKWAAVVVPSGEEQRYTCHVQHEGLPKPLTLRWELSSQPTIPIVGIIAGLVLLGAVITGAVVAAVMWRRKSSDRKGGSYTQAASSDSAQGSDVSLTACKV
T2 sequence (P61769 21-119, further chain): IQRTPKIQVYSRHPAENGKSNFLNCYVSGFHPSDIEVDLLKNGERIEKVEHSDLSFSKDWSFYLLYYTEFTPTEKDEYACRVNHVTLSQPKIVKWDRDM
Excerpt: (§1) The method utilizes purified class I molecules and radiolabeled synthetic probes based on consensus peptides. Competitor peptides tested for their binding to the class I molecules compete for this binding with the radiolabeled consensus peptides. The HLA-A1, A2.1, A3.2, A11.2, and A24 molecules were isolated from the following cell lines, respectively: the EBV (Eppstein Barr Virus) transformed cell line Steinlin, the EBV transformed cell line JY, the EBV transformed cell line GM3107, the cell line BVR and the EBV transformed cell line KT3. After large scale culture, cells were lysed in NP40 (Fluka Biochemika, Buchs, Switzerland) and the lysate was passed over two pre-columns of inactivated sepharose CL 4B and Prot A Sepharose. Class I molecules were then purified from the cell lysate by affinity chromatography using Prot A Sepharose beads conjugated with B2.23.2 (anti-HLA-B and HLA-C) and anti-human HLA. The lysate was first depleted of B and C molecules by repeated passage over the B2.23.2 column.
(§2) After two days at 23° C. the percent of MHC-bound radioactivity was measured by size exclusion chromatography on a TSK2000 gel filtration as described by Sette et al. (1992).
(§3) Probe peptides were iodinated by using the Chloramine T method described by Buus et al. (1987). The sequences of the probe peptides used for the aforementioned HLA molecules were […] (SEQ ID NO:76) for A1, […] (SEQ ID NO:77) for A2.1, […] (SEQ ID NO:78) for A3.2, […] (SEQ ID NO:79) for A11.2, and […] (SEQ ID NO:80) for A24.
(§4) Each competitor peptide was tested in two to four completely independent experiments. Since cysteine containing peptides are susceptible to (air) oxidation during synthesis and handling, these peptides were synthesized with an alanine instead of a cysteine.

[3] = system: HLA-A11.2; experiment: Immunochemical peptide-MHC binding assay, purified HLA-A11.2, radiolabeled probe […]; parameters: species or system human; conditions: IC50 of standard divided by IC50 of tested peptide, cysteines synthesized as alanine
Excerpt: as §1, §2, §3, §4

[4] = system: HLA-A24; experiment: Immunochemical peptide-MHC binding assay, purified HLA-A24, radiolabeled probe AYIDNYNKF; parameters: species or system human; conditions: IC50 of standard divided by IC50 of tested peptide, cysteines synthesized as alanine
Excerpt: as §1, §2, §3, §4

[5] = molecular target: T3, HLA-A1 (Homo sapiens, UniProt P04439, A114D/A174V/A182V/D101N/E190D/Q94H/R68K/S129P/V100A/V91M/W191G); experiment: Immunochemical peptide-MHC binding assay, purified HLA-A1, radiolabeled probe YLEPAIAKY; conditions: IC50 of standard divided by IC50 of tested peptide, cysteines synthesized as alanine
T3 construct: endogenous in cells; host or cells: EBV transformed cell line Steinlin (protein purified from NP40 lysate)
Excerpt: as §1, §2, §3, §4

Sequence	binding ratio to standard [2]	binding ratio to standard [3]	binding ratio to standard [4]	other results
CVYCKQQLL [HPV16 peptide 8, residues 37-45 of HPV16 protein E6]	0.0320	0.0450	–	MF (mean HLA-A2.1 fluorescence) [1]: 195.0; FI (Fluorescence Index) [1]: 2.0
CYSLYGTTL [residues 87-95 of HPV16 protein E6]	–	–	0.1200	–
EIDGPAGQA [residues 37-45 of HPV16 protein E7]	–	–	–	binding ratio to standard [5]: 0.025
EYRHYCYSL [residues 82-90 of HPV16 protein E6]	–	–	0.0460	–
HVDIRTLED [residues 73-81 of HPV16 protein E7]	–	–	–	binding ratio to standard [5]: 0.014
HYCYSLYGT [residues 85-93 of HPV16 protein E6]	–	–	0.0037	–
IVYRDGNPY [residues 59-67 of HPV16 protein E6]	3.0000	0.4700	–	–
KCLKFYSKI [residues 72-80 of HPV16 protein E6]	–	–	0.1100	–
KISEYRHYC [HPV16 peptide 9, residues 79-87 of HPV16 protein E6]	0.0044	0.0076	–	MF (mean HLA-A2.1 fluorescence) [1]: 211.7; FI (Fluorescence Index) [1]: 2.2
LIRCINCQK [residues 107-115 of HPV16 protein E6]	3.7000	0.0120	–	–
LLRREVYDF [residues 44-52 of HPV16 protein E6]	–	–	0.0023	–
MHQKRTAMF [residues 1-9 of HPV16 protein E6]	–	–	0.0049	–
MSCCRSSRT	–	–	–	binding ratio to standard [5]: 0.019
PYAVCDKCL [residues 66-74 of HPV16 protein E6]	–	–	0.0055	–
QQLLRREVY [residues 42-50 of HPV16 protein E6]	0.0058	0.0084	–	–
RAHYNIVTF [residues 49-57 of HPV16 protein E7]	–	–	0.0670	–
RFHNIRGRW [residues 131-139 of HPV16 protein E6]	–	–	0.1000	–
SCCRSSRTR [residues 145-153 of HPV16 protein E6]	0.0200	0.0330	–	–
TTDLYCYEQ [residues 19-27 of HPV16 protein E7]	–	–	–	binding ratio to standard [5]: 0.023
VCDKCLKFY [residues 69-77 of HPV16 protein E6]	0.0025	0.0030	–	–
VYCKQQLLR [residues 38-46 of HPV16 protein E6]	0.0012	0.0022	0.0011	–
VYDFAFRDL [residues 49-57 of HPV16 protein E6]	–	–	0.0610	–
WTGRCMSCC [residues 139-147 of HPV16 protein E6]	–	–	–	binding ratio to standard [5]: 0.020
YAVCDKCLK [residues 67-75 of HPV16 protein E6]	0.0012	0.0074	–	–
YNIVTFCCK [residues 52-60 of HPV16 protein E7]	0.0067	0.0060	–	–
YRDGNPYAV [residues 61-69 of HPV16 protein E6]	–	–	–	binding ratio to standard [5]: 0.008
